Assay results taken from patent US11246961B2, “Engineered scaffolds for vascularized tissue repair” (The Regents of the University of California, priority 2016, dated 2022).
Entries after “also recorded” stand apart in the source; their conditions may differ.

Legend:
HECFCs = test: on-bead whole cell binding assay, HECFCs; assay type: cell-based, human
From the text: Endothelial colony forming cells (ECFCs), a subtype of EPCs also often referred to as outgrowth endothelial cells (OECs), were isolated from human umbilical cord blood as previously described (Williams et al. (2015) PloS One 10:e0123437; Ingram et al. (2004) Blood 104:2752). Human umbilical cord blood (10 U heparin/mL blood) was obtained from the UC Davis Umbilical Cord Blood Collection Program (UCBCP) and diluted 1:1 with Phosphate-buffered saline (PBS), without calcium and magnesium, pH 7.2 (Hyclone). Fifteen mL Ficoll-Paque PLUS (Amersham Biosciences) was laid at the bottom of 20 mL diluted blood and centrifuged at 2000 rpm for 30 minutes at room temperature. The hazy layer of mononuclear cells (MNCs) that seat at the interface between the Ficoll and serum was collected and dispensed into 50-mL conical tube containing 10 mL EBM-2 (Lonza) and centrifuged at 1500 rpm for 10 minutes at room temperature. The supernatant was carefully aspirated and the pellets were treated with red blood cell lysis buffer (eBioscience, Inc.) and then sorted by CD34 microbead magnetic sorting (Miltenyi Biotec GmbH) as per manufacturer's instructions. The CD34^+ cells were seeded on rat-tail collagen I (BD Biosciences Discovery) coated tissue culture plates and cultured in EGM-2 media (Lonza). After 24 h, non-adherent cells were removed and the media was changed daily to day 7 and every other day thereafter. ECFC-derived colonies appeared between day 4 and day 7 of culture with s typical endothelial cobblestone pattern. Individual colonies were isolated and expanded and allowed to grow to 80% to 90% confluency before first passage. ECFCs were used between P3 and P5 for all experiments.
HECFCs, HCAECs, HMVECs and THP-1 monocytes were cultured in their respective growth medium as described in Example 1. For cell bead-binding assay, 6×10^5 HECFCs, HCAECs, HMVECs or THP-1 monocytes in 2 mL of their respective culture medium were added to an ultra-low attachment 35-mm petri dish (Corning Incorporated) followed by resin beads (Lam et al. (1991) Nature 354:82). […]

THP-1 monocytes = test: on-bead whole cell binding assay, THP-1 monocytes; assay type: cell-based; details: 10 minutes, 30 minutes or 2 hours
From the text: Human coronary artery endothelial cells (HCAECs) were purchased from ATCC. Human cardiac microvascular endothelial cells (HMVECs) were purchased from Lonza. THP-1 monocytes were obtained from Dr. Pamela Lein (University of California, Davis). The myeloid leukemia K562 cells that have been transfected with human integrin αvβ3 gene (αvβ3-K562 cells) were provided by Dr. Yoshikazu Takada and the K562 cells transfected with human integrin αIIbβ3 gene (αIIb3-K562 cells) were provided Dr. Jennifer Cochran (Stanford University)
HECFCs, HCAECs, HMVECs and THP-1 monocytes were cultured in their respective growth medium as described in Example 1. For cell bead-binding assay, 6×10^5 HECFCs, HCAECs, HMVECs or THP-1 monocytes in 2 mL of their respective culture medium were added to an ultra-low attachment 35-mm petri dish (Corning Incorporated) followed by resin beads (Lam et al. (1991) Nature 354:82). The dishes were incubated in a shaking incubator at 37° C., 5% CO2 for various time points at 40 rpm. For platelet bead-binding assay, the platelets isolated as described in Example 1 were added to an ultra-low attachment 35-mm petri dish and incubated with the resin beads in the shaking incubator as described for the cell-bead binding assy. Phase contrast images were taken at different time points using an Olympus IX81 microscope. […]

HMVECs = test: flow cytometry ligand-cell binding, HMVECs; design: species or system human; details: biotinylated ligand 1 μM, streptavidin-phycoerythrin
Experimental: FIG. 10 presents flow cytometry data from an assay of binding affinity of LXW7 and GRGD (SEQ ID NO: 1) to different cell types. Tests included EPCs/ECs from different sources, including HECFCs (A), HCAECs (B), HMVECs (C), and THP-1 monocytes (D), Platelets (E), as well as K562 cells engineered to highly express αvβ3 (αvβ3-K562, F), and αIIbβ3 (αIIbβ3-K562, G). Cells were incubated with the LXW7-bio, GRGD-bio (SEQ ID NO: 1), or D-Biotin peptide and subsequently incubated with streptavidin-phycoerythrin. Flow cytometry analysis was performed to determine the binding affinity of the ligands. Samples treated with D-biotin were used as negative controls.
LXW7-bio (1 μM) was incubated with 3×10^5 HECFCs, HCAECs, HMVECs, αvβ3-K562 and αIIbβ3-K562 cells and THP-1 monocytes and 1×10^8 platelets in binding buffer (HEPES containing 10% FBS) on ice for 30 minutes. The samples were washed three times with DPBS containing 1% FBS and incubated with 2 μg/ml of streptavidin-phycoerythrin on ice for 30 minutes and then washed with DPBS. Samples were analyzed on a BD Fortessa LSR Cell Analyzer and further data analysis and gating were performed using FlowJo software (Treestar, Inc.).

cGRGDdvc [LXW7] was tested, and the “attachment of HECFCs to beads displaying LXW7” value (HECFCs; 10 minutes, 30 minutes or 2 hours) was “efficiently supported attachment of EPCs/ECs from different sources; also recorded: efficiently supported EPC/EC attachment”, the “binding of HECFCs to ligand-displaying resin beads” value (HECFCs; 2 hours incubation) was “bound both HECFCs and HCAECs” and the “attachment of THP-1 monocytes to beads displaying LXW7” value (THP-1 monocytes) was “did not support effective attachment of THP-1 monocytes”. For the same substance, the “binding affinity to HMVECs by flow cytometry” value (HMVECs) was “higher binding affinity with different types of EPCs/ECs than conventional GRGD peptide”.
